Assays:
Format in all cases: in vivo
Setaria viridis (SETVI) [1] = test: Post-emergence herbicidal action against SETVI
Method in brief: (§1)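 Rates were 320 g/ha or below, applied as aqueous WP/EC spray with 0.5% additive (600 l/ha) onto one-leaf-stage plants. About 3 weeks later in the greenhouse, damage was scored visually against untreated plants on a 0–100% scale, where 100% means plants died.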

Setaria viridis (SETVI) [2] = test: Pre-emergence herbicidal action against SETVI
Method in brief: (§2)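 Application rates ran to 320 g/ha or lower, with several dosages tested on the same weeds. The compound, as wettable powder or emulsion concentrate, is sprayed pre-emergence onto soil over sown seeds; greenhouse growth follows, and effect is rated visually after roughly 3 weeks.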

[3] = system: Matricaria inodora (MATIN); test: Pre-emergence herbicidal action against MATIN
Method in brief: as §2

[4] = system: Abutilon theophrasti (ABUTH); test: Pre-emergence herbicidal action against ABUTH; conditions: 100% = plants have died
Method in brief: as §2

Lolium rigidum (LOLRI) [5] = test: Post-emergence herbicidal action against LOLRI
Method in brief: as §1

[6] = system: Echinochloa crus-galli (ECHCG); test: Post-emergence herbicidal action against ECHCG
Method in brief: as §1

[7] = system: Matricaria inodora (MATIN); test: Post-emergence herbicidal action against MATIN
Method in brief: as §1

Viola tricolor (VIOTR) = test: Post-emergence herbicidal action against VIOTR
Method in brief: as §1

Avena fatua (AVEFA) = test: Post-emergence herbicidal action against AVEFA; conditions: visual rating about 3 weeks after treatment
Method in brief: as §1

Lolium rigidum (LOLRI) [8] = test: Pre-emergence herbicidal action against LOLRI
Method in brief: as §2

[9] = 80 g/ha, scored visually after about 3 weeks vs untreated controls, 0% = like control plants
[10] = Dosage column 320 g/ha (title prints 3200 g/ha), scored visually after about 3 weeks

Row | Structure (SMILES) | Post-emergence action against SETVI in % (Setaria viridis (SETVI) [1]; dosage 80 g/ha) | Post-emergence action against SETVI in % (Setaria viridis (SETVI) [1]; dosage 320 g/ha) | Pre-emergence action against SETVI in % (Setaria viridis (SETVI) [2]; dosage 80 g/ha) | Pre-emergence action against SETVI in % (Setaria viridis (SETVI) [2]; dosage 320 g/ha) | Pre-emergence action against MATIN in % ([3]; dosage 80 g/ha) | Pre-emergence action against MATIN in % ([3]; dosage 320 g/ha) | Pre-emergence action against ABUTH [4, 9] | Pre-emergence action against ABUTH [4, 10] | Post-emergence action against LOLRI in % (Lolium rigidum (LOLRI) [5]; dosage 80 g/ha) | Post-emergence action against LOLRI in % (Lolium rigidum (LOLRI) [5]; dosage 320 g/ha) | Post-emergence action against ECHCG in % ([6]; dosage 80 g/ha) | Post-emergence action against ECHCG in % ([6]; dosage 320 g/ha) | Post-emergence action against MATIN in % ([7]; dosage 320 g/ha) | Post-emergence action against VIOTR in % (Viola tricolor (VIOTR); 80 g/ha) | Post-emergence action against VIOTR in % (Viola tricolor (VIOTR); 320 g/ha) | Post-emergence action against AVEFA in % (Avena fatua (AVEFA); 80 g/ha) | Post-emergence action against AVEFA in % (Avena fatua (AVEFA); 320 g/ha) | Pre-emergence action against LOLRI in % (Lolium rigidum (LOLRI) [8]; dosage 80 g/ha) | Pre-emergence action against LOLRI in % (Lolium rigidum (LOLRI) [8]; dosage 320 g/ha) | Post-emergence action against MATIN in % ([7]; dosage 80 g/ha)
1 | COC(=O)[C@@H](C)Oc1nn(-c2ncccc2F)c(-c2ccc(F)nc2)c1I [Example I-341] | 80% | 80% | 80% | 100% | 90% | 100% | 90% | 90% | 90% | 90% | 100% | 100% | 90% | 80% | 80% | 80% | 80% | 100% | 100% | 
2 | COC(=O)C(C)COC(=O)[C@@H](C)Oc1nn(-c2ccccn2)c(-c2cncc(F)c2)c1Cl (stereo partly shown) [Example I-198] | 80% | 80% | 100% | 100% | 90% | 90% |  | 90% | 80% | 80% | 80% | 80% | 80% |  | 80% | 80% | 80% | 100% | 100% | 
3 | C[C@@H](Oc1nn(-c2ncccc2F)c(-c2ccc(F)nc2)c1Br)C(=O)O [Example I-18] | 80% | 80% | 100% | 100% | 100% | 100% | 80% | 90% |  | 80% | 80% | 80% | 80% |  | 80% |  | 80% | 90% | 100% | 80%
4 | COC(=O)[C@H](C)COC(=O)COc1nn(-c2ccccn2)c(-c2cncc(F)c2)c1Cl [Example I-192] | 80% | 80% | 90% | 100% | 90% | 90% |  | 80% |  | 80% | 90% | 90% | 80% |  | 80% |  | 80% | 80% | 100% | 
5 | COC(=O)C(C)NC(=O)[C@@H](C)Oc1nn(-c2ccccn2)c(-c2cncc(F)c2)c1Cl (stereo partly shown) [Example I-199] | 80% | 90% | 90% | 100% | 90% | 100% | 80% | 90% | 90% | 90% | 90% | 90% | 80% | 80% | 80% |  | 80% | 100% | 100% | 
6 | C[C@@H](Oc1nn(-c2ncccc2F)c(-c2ccc(F)nc2)c1I)C(=O)O [Example I-343] | 90% | 90% | 100% | 100% |  | 100% | 80% | 100% |  | 90% | 90% | 90% | 80% | 80% | 80% | 80% | 80% | 90% | 90% | 
7 | C[C@@H](Oc1nn(-c2ncccc2F)c(-c2ccc(F)nc2)c1C1CC1)C(=O)O [Example I-342] | 90% | 90% | 90% | 100% | 100% | 100% |  | 90% | 90% | 90% | 90% | 90% | 100% | 90% | 90% | 90% | 100% | 100% | 100% | 
8 | CCOC(=O)COc1nn(-c2nc(F)ccc2F)c(-c2cncc(F)c2)c1C1CC1 [Example I-149] | 80% | 80% | 100% | 100% | 90% | 90% |  | 80% | 80% | 90% | 80% | 80% | 90% | 80% | 80% |  | 80% | 100% | 100% | 80%
9 | COC(=O)[C@@H](C)Oc1nn(-c2nc(F)ccc2F)c(-c2cncc(F)c2)c1Br [Example I-191] | 80% | 80% | 80% | 100% | 90% | 90% |  | 90% | 90% | 90% | 80% | 80% | 80% |  | 80% | 80% | 90% | 90% | 90% | 
10 | COC(=O)CNC(=O)[C@@H](C)Oc1nn(-c2ccccn2)c(-c2cncc(F)c2)c1Br [Example I-187] |  | 80% | 100% | 100% | 90% | 90% | 80% | 90% | 90% | 90% | 80% | 80% | 80% | 80% | 90% |  | 80% | 90% | 100% | 
11 | COC(=O)[C@@H](C)Oc1nn(-c2ncccc2F)c(-c2ccc(F)nc2)c1C1CC1 [Example I-307] | 90% | 90% | 100% | 100% | 90% | 100% |  | 80% | 100% | 100% | 90% | 90% | 80% | 80% | 90% | 90% | 90% | 100% | 100% | 
12 | COC(=O)C(C)NC(=O)[C@@H](C)Oc1nn(-c2ccccn2)c(-c2cncc(F)c2)c1Br (stereo partly shown) [Example I-190] | 80% | 80% | 90% | 100% | 90% | 90% |  | 80% | 90% | 90% | 80% | 80% | 80% | 80% | 90% |  | 80% | 100% | 100% | 

— patent US20240041042A1, “1-(PYRIDYL)-5-AZINYLPYRAZOLE DERIVATIVES, AND THEIR USE FOR CONTROL OF UNDESIRED PLANT GROWTH” (Bayer Aktiengesellschaft, priority 2020, published 2024)
